Measured values from US20220064167A1, “IMIDAZO-PYRAZOLE CARBOXAMIDE DERIVATIVES AS ANTICANCER AGENTS AND THE SYNTHESIS THEREOF” (AVIDIN KFT., priority 2018, published 2022).

Columns and labels:
[1] = system: mouse mammary carcinoma 4T1; assay: resazurin viability assay, 72 h (Table 1); format: cell-based; conditions: 72h incubation, 156 nM-100 μM
From the text: (§1) In our experiments three different cell lines were used. Cells were purchased from the American Type Culture Collection (ATCC, Manassas, Va., USA). The human breast adenocarcinoma cell line, MCF-7 cells were maintained in Dulbecco's Modified Eagle Medium/Nutrient Mixture F-12 (DMEM/F12) 10% fetal calf serum (FCS, Gibco) and mouse mammary carcinoma 4T1 and human promyelocytic leukemia, HL-60 cells were maintained in Roswell Park Memorial Institute 1640 medium (RPMI-1640) 10% FCS. Media were supplemented with 2 mM GlutaMAX, and 100 U/mL penicillin, 100 μg/mL streptomycin (Life Technologies, Carlsbad, Calif., USA). Cell cultures were maintained at 37° C. in a humidified incubator in an atmosphere of 5% CO2 (Sanyo, Japan).
(§2) For viability assays cells were seeded in 96 well plates (MCF7 and 4T1: 6000, HL60: 120.000 cells/well) and incubated overnight. Compounds were dissolved in dimethyl sulfoxide (DMSO). Cells were treated with an increasing concentration of compounds having the general formula (I.) (156 nM-100 μM). Cell viability was determined after 72h incubation. Resazurin reagent (Sigma-Aldrich) was dissolved in PBS (pH 7.4) at 0.15 mg/ml concentration, sterile filtered (0.22 μm, Merck Millipore) and aliquoted at −20° C. Resazurin reagent (Sigma-Aldrich) was added at a final concentration of 25 μg/ml. After 2 hours incubation at 37° C. 5% CO2 fluorescence (530 nm excitation/580 nm emission) was recorded on a multimode microplate reader (Cytofluor4000, PerSeptive Biosytems). Viability was calculated with relation to untreated control cells and blank wells containing media without cells. IC50 values (50% inhibiting concentration) were calculated by GraphPad Prism® 5 (La Jolla, Calif., USA).

[2] = system: human promyelocytic leukemia, HL-60 cells; assay: resazurin viability assay, 72 h (Table 1); format: cell-based; conditions: 72h incubation, 156 nM-100 μM
From the text: as §1, §2

[3] = system: human breast adenocarcinoma cell line, MCF-7; assay: resazurin viability assay, 72 h (Table 1); format: cell-based; conditions: MCF7, 72h incubation, 156 nM-100 μM
From the text: as §1, §2

| Compound | melting point [°C] | IC50 [1] [µM] | IC50 [2] [µM] | IC50 [3] [µM] |
| --- | --- | --- | --- | --- |
| COc1cc(-c2[nH]c3c(C(N)=O)cnn3c2NC(C)(C)CC(C)(C)C)ccc1OC(C)=O [Example 8, 4-(7-Carbamoyl-3-((2,4,4-trimethylpentan-2-yl)amino)-1H-imidazo[1,2-b]pyrazol-2-yl)-2-methoxyphenyl acetate] | 190 to 191 | 34.1 | 26.6 | 40.6 |
| CC(C)(C)CC(C)(C)Nc1c(-c2ccc(F)cc2)[nH]c2c(C(N)=O)cnn12 [Example 10, 2-(4-Fluorophenyl)-3-((2,4,4-trimethylpentan-2-yl)amino)-1H-imidazo[1,2-b]pyrazole-7-carboxamide] | 229 to 230 | > 50 | 17.5 | > 50 |
| COC(=O)CNc1c(-c2ccc(F)cc2)[nH]c2c(C(N)=O)cnn12 [Example 11, Methyl 2-((7-carbamoyl-2-(4-fluorophenyl)-1H-imidazo[1,2-b]pyrazol-3-yl)amino)acetate] | 229 to 230 | > 50 | 15.9 | > 50 |
| C/C(=C\c1ccccc1)c1[nH]c2c(C(N)=O)cnn2c1NC(C)(C)C [Example 15, (E)-3-(Tert-butylamino)-2-(1-phenylprop-1-en-2-yl)-1H-imidazo[1,2-b]pyrazole-7-carbox-amide] | 190 to 191 | > 50 | 29.2 | > 50 |
| COc1ccc(Nc2c(C(C)(C)C)[nH]c3c(C(N)=O)cnn23)cc1 [Example 20, 2-(Tert-butyl)-3-((4-methoxyphenyl)amino)-1H-imidazo[1,2-b]pyrazole-7-carboxamide] | 260 to 262 | > 50 | 8.8 | > 50 |
| CC(C)(C)c1[nH]c2c(C(N)=O)cnn2c1Nc1ccc(F)cc1 [Example 21, 2-(Tert-butyl)-3-((4-fluorophenyl)amino)-1H-imidazo[1,2-b]pyrazole-7-carboxamide] | 249 to 250 | > 50 | 24.4 | 40.5 |
| CC(C)(C)CC(C)(C)Nc1c(C2CC2)[nH]c2c(C(N)=O)cnn12 [Example 23, 2-Cyclopropyl-3-((2,4,4-trimethylpentan-2-yl)amino)-1H-imidazo[1,2-b]pyrazole-7-carboxamide] | 205 to 207 | > 50 | 5.49 | > 50 |
| CCc1[nH]c2c(C(N)=O)cnn2c1NC(C)(C)CC(C)(C)C [Example 24, 2-Ethyl-3-((2,4,4-trimethylpentan-2-yl)amino)-1H-imidazo[1,2-b]pyrazole-7-carboxamide] | 207 to 209 | > 50 | 27.9 | > 50 |
| CCCCNC(=O)c1cnn2c(NC(C)(C)CC(C)(C)C)c(C(C)(C)C)[nH]c12 [Example 29, 2-(Tert-butyl)-N-butyl-3-((2,4,4-trimethylpentan-2-yl)amino)-1H-imidazo[1,2-b]pyrazole-7-carboxamide] | 147 to 148 | > 50 | 2.72 | 34.1 |
| CC(C)(C)CC(C)(C)Nc1c(C(C)(C)C)[nH]c2c(C(=O)Nc3ccccc3C(F)(F)F)cnn12 [Example 45, 2-(Tert-butyl)-N-(2-(trifluoromethyl)phenyl)-3-((2,4,4-trimethylpentan-2-yl)amino)-1H-imidazo[1,2-b]pyrazole-7-carboxamide] | 106 | – | – | – |
| CC(C)(C)CC(C)(C)Nc1c(C(C)(C)C)[nH]c2c(C(=O)NCc3ccc(F)cc3)cnn12 [Example 71, 2-(Tert-butyl)-N-(4-fluorobenzyl)-3-((2,4,4-trimethylpentan-2-yl)amino)-1H-imidazo[1,2-b]pyrazole-7-carboxamide] | 163 to 164 | – | – | – |
| CC(C)(C)CC(C)(C)Nc1c(C(C)(C)C)[nH]c2c(C(=O)Nc3ccc(F)cn3)cnn12 [Example 72, 2-(Tert-butyl)-N-(5-fluoropyridin-2-yl)-3-((2,4,4-trimethylpentan-2-yl)amino)-1H-imidazo[1,2-b]pyrazole-7-carboxamide] | 140 | – | – | – |
| CC(C)(C)CC(C)(C)Nc1c(C(C)(C)C)[nH]c2c(C(=O)Nc3ccc(F)nc3)cnn12 [Example 73, 2-(Tert-butyl)-N-(6-fluoropyridin-3-yl)-3-((2,4,4-trimethylpentan-2-yl)amino)-1H-imidazo[1,2-b]pyrazole-7-carboxamide] | 177 to 178 | – | – | – |
| Cc1nn2c(NC(C)(C)CC(C)(C)C)c(C(C)(C)C)[nH]c2c1C(=O)Nc1ccc(F)cc1 [Example 74, 2-(Tert-butyl)-N-(4-fluorophenyl)-6-methyl-3-((2,4,4-trimethylpentan-2-yl)amino)-1H-imidazo[1,2-b]pyrazole-7-carboxamide] | 179 | – | – | – |

Continued, values first:

| melting point [°C] | IC50 [1] [µM] | IC50 [2] [µM] | IC50 [3] [µM] | Compound |
| --- | --- | --- | --- | --- |
| 218 to 219 | 12.3 | 12.6 | 17 | Cc1ccc(-c2[nH]c3c(C(N)=O)cnn3c2NC(C)(C)CC(C)(C)C)cc1 [Example 6, 2-(p-Tolyl)-3-((2,4,4-trimethylpentan-2-yl)amino)-1H-imidazo[1,2-b]pyrazole-7-carbox-amide] |
| 124 to 125 | 25.2 | 19 | 18.6 | COc1ccc(-c2[nH]c3c(C(N)=O)cnn3c2NC(C)(C)CC(C)(C)C)cc1 [Example 7, 2-(4-Methoxyphenyl)-3-((2,4,4-trimethylpentan-2-yl)amino)-1H-imidazo[1,2-b]pyrazole-7-carboxamide] |
| 192 to 193 | 20.9 | 13.2 | 12.7 | CC(C)(C)CC(C)(C)Nc1c(-c2ccc(C(F)(F)F)cc2)[nH]c2c(C(N)=O)cnn12 [Example 12, 2-(4-(Trifluoromethyl)phenyl)-3-((2,4,4-trimethylpentan-2-yl)amino)-1H-imidazo[1,2-b]pyrazole-7-carboxamide] |
| 190 to 192 | 12.3 | 9.35 | 11.1 | CC(C)(C)CC(C)(C)Nc1c(C2CCCCC2)[nH]c2c(C(N)=O)cnn12 [Example 16, 2-Cyclohexyl-3-((2,4,4-trimethylpentan-2-yl)amino)-1H-imidazo[1,2-b]pyrazole-7-carbox-amide] |
| 148 to 149 | 4.24 | 2.95 | 4.07 | CC(C)(C)c1[nH]c2c(C(N)=O)cnn2c1NC1CCCCC1 [Example 18, 2-(Tert-butyl)-3-(cyclohexylamino)-1H-imidazo[1,2-b]pyrazole-7-carboxamide] |
| 221 | 23.9 | 4.99 | 27.9 | CC(C)(C)Nc1c(C(C)(C)C)[nH]c2c(C(N)=O)cnn12 [Example 19, 2-(Tert-butyl)-3-(tert-butylamino)-1H-imidazo[1,2-b]pyrazole-7-carboxamide] |
| 132 to 134 | 3.63 | 7.79 | 10.6 | CC(C)c1[nH]c2c(C(N)=O)cnn2c1NC(C)(C)CC(C)(C)C [Example 25, 2-Isopropyl-3-((2,4,4-trimethylpentan-2-yl)amino)-1H-imidazo[1,2-b]pyrazole-7-carbox-amide] |
| 161 to 163 | 9.95 | 1.37 | 8.29 | C=CCC(C)(C)c1[nH]c2c(C(N)=O)cnn2c1NC(C)(C)CC(C)(C)C [Example 26, 2-(2-Methylpent-4-en-2-yl)-3-((2,4,4-trimethylpentan-2-yl)amino)-1H-imidazo[1,2-b]pyrazole-7-carboxamide] |
| 184 to 186 | 11.6 | 14.8 | 18 | CCC(CC)(CCC#N)c1[nH]c2c(C(N)=O)cnn2c1NC(C)(C)CC(C)(C)C [Example 27, 2-(1-Cyano-3-ethylpentan-3-yl)-3-((2,4,4-trimethylpentan-2-yl)amino)-1H-imidazo[1,2-b]pyrazole-7-carboxamide] |
| 173 to 174 | 4.66 | 1.52 | 4.46 | CNC(=O)c1cnn2c(NC(C)(C)CC(C)(C)C)c(C(C)(C)C)[nH]c12 [Example 28, 2-(Tert-butyl)-N-methyl-3-((2,4,4-trimethylpentan-2-yl)amino)-1H-imidazo[1,2-b]pyrazole-7-carboxamide] |
| – | 30.7 | 3.05 | 29.3 | CC(C)(C)CC(C)(C)Nc1c(C(C)(C)C)[nH]c2c(C(=O)Nc3ccc(Cl)cc3)cnn12 [Example 51, 2-(Tert-butyl)-N-(4-chlorophenyl)-3-((2,4,4-trimethylpentan-2-yl)amino)-1H-imidazo[1,2-b]pyrazole-7-carboxamide] |
